Key:
[1] = system: S. Typhimurium ATCC 14028 (JSG210) biofilms; experiment: Biofilm dispersion assay on pre-formed biofilms (crystal violet staining); assay type: cell-based, Salmonella enterica serovar Typhimurium; settings: for EC50: 50% dispersion of biofilms established 24 h, then 24 h with compound, crystal violet OD570, mean ± standard deviation; for fold improvement of dispersion activity (EC50) versus comparator: 4d vs 1, 6g vs 4c and 4d, lead compounds vs parent compound
Experimental: (§1) Salmonella biofilm growth and crystal violet staining. […] For biofilm assays, individual bacterial colonies were picked and used to inoculate LB broth for overnight liquid cultures, which were grown at 37° C. with aeration using a rotating drum. […] Biofilm plates were then submerged in dH2O to wash away any remaining non-adherent bacteria and heat fixed (1h, 60° C.). Biofilms were then stained with a 33% crystal violet solution (6 mL PBS, 3.3 mL crystal violet, 333 μL methanol, 333 μL isopropanol) for 5 min. and washed twice by submerging in dH2O before releasing the bound dye with 33% glacial acetic acid. Biofilm growth was then quantified by measuring the optical density of the solubilized dye at 570 nm using a spectrophotometer (Molecular Devices, SpectraMax M5).
(§2) Biofilm Inhibition and Dispersion Assays and IC50/EC50 Determination. […] Biofilms were then grown as described above for a total of 24 h prior to CV staining. […] Biofilms were then incubated for an additional 24 h in the presence of compounds prior to CV staining. IC50/EC50 values were calculated by plotting normalized compound activity (percent biofilm formed and percent remaining, respectively) as a function of log10 compound concentration and fitting a dose response curve (log[inhibitor] vs. normalized response, variable slope).

[2] = system: S. Typhimurium ATCC 14028 (JSG210) biofilms; experiment: Biofilm inhibition assay (crystal violet staining); assay type: cell-based, Salmonella enterica serovar Typhimurium; settings: for IC50: inhibition of S. Typhimurium biofilm formation, compound present 24 h, crystal violet OD570, mean ± standard deviation; for anti-biofilm activity (inhibition and dispersion) in words: S. Typhimurium biofilms in vitro; for fold improvement of IC50 versus comparator: 6a vs 4c, 6b vs 4d, 6g vs 4c and 4d, 8i vs 8b
Experimental: Inhibition of biofilm formation is assessed by growing bacteria in a 96-well plate in the absence (control) or presence of test compounds. After 24 hours, the wells are washed to remove planktonic bacteria, and the remaining surface attached bacteria (biofilm) are stained with crystal violet (CV). The wells are then washed again to remove excess CV, and the remaining CV is solubilized with a solution of acetic acid and then quantified by spectrophotometry at 570 nm. A dose response curve is then constructed from which an IC50 value is determined.
as §1, §2

Row | Compound | EC50 [1] [µM] | IC50 [2] [µM] | other results
1 | CN(Cc1ccccc1)CC1CCN(CCc2ccccc2F)CC1 [Compound 3.1a] | > 75 | 5 | –
2 | Cc1ccccc1CN(C)CC1CCN(CCc2ccccc2F)CC1 [Compound 3.1b] | > 75 | 4.4 | –
3 | CN(Cc1ccccc1F)CC1CCN(CCc2ccccc2F)CC1 [Compound 3.1c] | > 75 | 14.9 | –
4 | CN(Cc1ccccc1Cl)CC1CCN(CCc2ccccc2F)CC1 [Compound 3.1d] | > 75 | 6.3 | –
5 | CN(Cc1ccccc1Br)CC1CCN(CCc2ccccc2F)CC1 [Compound 3.1e] | 42 | 6.5 | –
6 | CN(Cc1ccccc1I)CC1CCN(CCc2ccccc2F)CC1 [Compound 3.1f] | 53 | 4.4 | –
7 | CN(Cc1cccc(Cl)c1)CC1CCN(CCc2ccccc2F)CC1 [Compound 3.1h] | > 75 | 5.6 | –
8 | CN(Cc1ccc(F)cc1)CC1CCN(CCc2ccccc2F)CC1 [Compound 3.1i] | > 75 | 5.5 | –
9 | CN(Cc1cccc(Cl)c1Cl)CC1CCN(CCc2ccccc2F)CC1 [Compound 3.1l] | 43 | 5.6 | –
10 | CN(Cc1ccccc1)CC1CCN(CCc2ccc(Cl)c(Cl)c2)CC1 [Compound 3.2a] | 35 | 0.59 | –
11 | CN(Cc1ccccc1I)CC1CCN(CCc2ccc(Cl)c(Cl)c2)CC1 [Compound 3.2d] | 26 | 3.4 | –
12 | CN(Cc1cccc(Cl)c1)CC1CCN(CCc2ccc(Cl)c(Cl)c2)CC1 [Compound 3.2f] | 21 | 2.3 | –
13 | CN(Cc1ccc(Cl)c(Cl)c1)CC1CCN(CCc2ccc(Cl)c(Cl)c2)CC1 [Compound 3.2h] | 17 | 0.96 | –
14 | CN(Cc1ccccc1)CC1CCN(CCc2ccc(Cl)cc2Cl)CC1 [Compound 3.3a] | 11 ± 7 | 4.3 ± 2.1 | –
15 | CN(Cc1ccccc1Cl)CC1CCN(CCc2ccc(Cl)cc2Cl)CC1 [Compound 3.3c] | 14 ± 10 | 11.3 ± 7.3 | –
16 | CN(Cc1ccccc1I)CC1CCN(CCc2ccc(Cl)cc2Cl)CC1 [Compound 3.3d] | > 50 | 10.1 ± 4.5 | –
17 | CN(Cc1cccc(Cl)c1Cl)CC1CCN(CCc2ccc(Cl)cc2Cl)CC1 [Compound 3.3i] | 8 ± 4 | 6.5 ± 2.5 | –
18 | CN(Cc1cccc2ccccc12)CC1CCN(CCc2ccccc2F)CC1 [Compound 3.4a] | 12 ± 8 | 4.2 ± 2.9 | –
19 | CN(Cc1ccccn1)CC1CCN(CCc2ccccc2F)CC1 [Compound 3.8a] | > 50 | > 20 | –
20 | CN(Cc1ccncc1)CC1CCN(CCc2ccccc2F)CC1 [Compound 3.8c] | > 50 | > 20 | –
21 | CN(Cc1ccsc1)CC1CCN(CCc2ccccc2Cl)CC1 [Compound 4a] | 232 ± 6 | 6 ± 1.4 | –
22 | CN(Cc1ccsc1)CC1CCN(CCc2ccccc2Br)CC1 [Compound 4b] | 308 ± 11 | 7.2 ± 1.6 | –
23 | CN(Cc1ccsc1)CC1CCN(CCc2cccc(F)c2)CC1 [Compound 4c] | 388 ± 19 | 6.9 ± 0.1 | –
24 | CN(Cc1ccsc1)CC1CCN(CCc2ccc(F)cc2)CC1 [Compound 4d] | 235 | 16.8 ± 3.4 | fold improvement of dispersion activity (EC50) versus comparator [1]: ca. 3.5
25 | CN(Cc1ccsc1)CC1CCN(CCc2cc(F)cc(F)c2)CC1 [Compound 4e] | > 12000 | > 200 | anti-biofilm activity (inhibition and dispersion) in words [2]: inactive
26 | COc1ccccc1CCN1CCC(CN(C)Cc2ccsc2)CC1 [Compound 4f] | 11760 ± 77 | 16.9 ± 5.2 | –

Row | Compound | EC50 [1] [µM] | IC50 [2] [µM] | other results
27 | CN(Cc1ccsc1)CC1CCN(CCc2ccccc2)CC1 [Compound 4g] | > 12000 | 21.2 ± 2.6 | –
28 | CNCC1CCN(CCc2ccccc2F)CC1 [Compound 5] | – | – | EC50 ([1]; Salmonella enterica): > 12000 µM; anti-biofilm activity (inhibition and dispersion) in words [2]: abrogated activity; IC50 ([2]; Salmonella enterica): > 200 µM
29 | CN(Cc1ccsc1)CC1CCN(CCc2cccc(Cl)c2)CC1 [Compound 6a] | 135 ± 12 | 2 | fold improvement of IC50 versus comparator [2]: over two-fold
30 | CN(Cc1ccsc1)CC1CCN(CCc2ccc(Cl)cc2)CC1 [Compound 6b] | 69 ± 4 | 3 ± 1.4 | fold improvement of IC50 versus comparator [2]: over four-fold
31 | CN(Cc1ccsc1)CC1CCN(CCc2cccc(Br)c2)CC1 [Compound 6c] | 83 ± 6 | 3.6 | –
32 | CN(Cc1ccsc1)CC1CCN(CCc2ccc(Br)cc2)CC1 [Compound 6d] | 57 ± 4 | 3 ± 0.7 | –
33 | CN(Cc1ccsc1)CC1CCN(CCc2cc(Cl)cc(Cl)c2)CC1 [Compound 6e] | 45 | 1.6 | –
34 | CN(Cc1ccsc1)CC1CCN(CCc2cc(Br)cc(Br)c2)CC1 [Compound 6f] | 42 | 3.4 | –
35 | CN(Cc1ccsc1)CC1CCN(CCc2ccc(F)c(F)c2)CC1 [Compound 6g] | 87 ± 13 | 3 ± 0.2 | fold improvement of dispersion activity (EC50) versus comparator [1]: over two-fold; fold improvement of IC50 versus comparator [2]: over two-fold
36 | CN(Cc1ccsc1)CC1CCN(CCc2c(F)cccc2F)CC1 [Compound 6h] | 138 ± 18 | 6.3 ± 0.6 | –
37 | CN(Cc1ccsc1)CC1CCN(Cc2ccccc2F)CC1 [Compound 6i] | 125 ± 6 | 8.8 ± 0.8 | –
38 | CN(Cc1ccsc1)CC1CCN(Cc2ccccc2Cl)CC1 [Compound 6j] | 1810 ± 176 | 2.7 ± 0.7 | –
39 | CN(Cc1ccsc1)CC1CCN(Cc2ccccc2)CC1 [Compound 6k] | > 12000 | 26.7 ± 1.2 | –
40 | CN(Cc1ccsc1)CC1CCN(CCCc2ccccc2F)CC1 [Compound 6l] | 221 ± 17 | 11.5 ± 2.7 | –
41 | CN(Cc1ccsc1)CC1CCN(CCCc2ccccc2Cl)CC1 [Compound 6m] | 59 ± 4 | 5.4 ± 1.2 | –
42 | CN(Cc1ccsc1)CC1CCN(CCCc2ccccc2)CC1 [Compound 6n] | > 12000 | 78.1 ± 3.7 | –
43 | CN(Cc1ccsc1)CC1CCN(CCc2ccc(Cl)c(Cl)c2)CC1 [Compound 7a] | 45 ± 2 | 1.4 | –
44 | CN(Cc1ccsc1)CC1CCN(CCc2ccc(Cl)cc2Cl)CC1 [Compound 7c] | 22 ± 2 | 2.5 ± 0.5 | –
45 | CN(Cc1ccsc1)CC1CCN(CCc2ccccc2C(F)(F)F)CC1 [Compound 7e] | 60 ± 2 | 12.7 ± 4.1 | –
46 | CN(Cc1ccsc1)CC1CCN(Cc2ccccc2Br)CC1 [Compound 7f] | 79 ± 3 | 4.9 ± 0.8 | –
47 | CN(Cc1ccsc1)CC1CCN(Cc2cccc(Cl)c2)CC1 [Compound 7h] | 299 ± 21 | 5.2 ± 1.3 | –
48 | CN(Cc1ccsc1)CC1CCN(Cc2cccc(Br)c2)CC1 [Compound 7i] | 142 ± 9 | 6.5 ± 2.9 | –
49 | CN(Cc1ccsc1)CC1CCN(Cc2ccc(F)cc2)CC1 [Compound 7j] | 443 ± 52 | 12.9 ± 1.4 | –
50 | CN(Cc1ccsc1)CC1CCN(Cc2ccc(Cl)cc2)CC1 [Compound 7k] | 934 ± 26 | 5.9 ± 2.8 | –
51 | CN(Cc1ccsc1)CC1CCN(Cc2ccc(Br)cc2)CC1 [Compound 7l] | 127 ± 13 | 8.5 ± 1.8 | –
52 | CN(Cc1ccsc1)CC1CCN(Cc2cc(F)cc(F)c2)CC1 [Compound 7m] | > 12000 | 14.2 ± 1.7 | –

Source: patent US20250161285A1, “BACTERIAL BIOFILM INHIBITORS” (THE RESEARCH INSTITUTE AT NATIONWIDE CHILDREN'S HOSPITAL, priority 2022, published 2025)
